Among the data in the Bradley open melting point set (2014) are melting point values, retold here.

The structures appear in SMILES notation. Where “and” joins values, the source holds several entries; their conditions need not be identical. Identical values can stand only once.

Consider `O=C(/C=C/c1ccc(-c2ccc(Cl)cc2)o1)c1ccccc1` [(2E)-3-[5-(4-Chlorophenyl)-2-furyl]-1-phenylprop-2-en-1-one], for which the melting point (in general, the temperature of the solid-liquid transition) is 127 °C. In the case of `Cc1cc(C=O)c(C)n1-c1ccc(C(F)(F)F)cc1` [OSM-S-34] it was 86 °C.

The molecule `O=C(c1c(F)c(F)c(F)c(F)c1F)c1c(F)c(F)c(F)c(F)c1F` [decafluorobenzophenone] yielded a melting point of 93 °C. With `CCOC(=O)c1cnn(C)c1N` [ethyl 5-amino-1-methyl-1h-pyrazole-4-carboxylate], the melting point was 100 °C. In the case of `Cc1ccc[n+]([O-])c1` [3-picoline n-oxide] it was 38 °C; in that of `CCCCc1c2c(cc3c1-c1ccccc1OC3)CCCC2=O` [12-Butyl-9,10-dihydro-6H-naphtho[2,3-c]chromen-11(8H)-one], 91 °C; in that of `Cc1ccc2c(c1)-c1c(cc3c(c1-c1ccccc1)C(=O)CC(C)(C)C3)CO2`, 199 °C. In the case of `OC/C=C\CO` [cis-2-butene-1,4-diol] it was 7 °C; in that of `Fc1ccc(Br)cc1` [1-bromo-4-fluorobenzene], -16 °C. Turning to `O=C(O)c1ccccc1` [Benzoic acid], the melting point was found to be 122 °C. Molecule `Cc1ccc2ncccc2c1[N+](=O)[O-]` [6-methyl-5-nitroquinoline] yielded a melting point of 117 °C. `O=[N+]([O-])O[C@H]1CO[C@H]2[C@@H]1OC[C@H]2O[N+](=O)[O-]` [isosorbide dinitrate] had a melting point of 70 °C. On to `O=C(O)c1cc(Cl)ccc1Br` [2-bromo-5-chlorobenzoic acid], for which the melting point worked out at 154 °C.

In turn, `O=C(CBr)c1ccc(Br)cc1` [2,4'-dibromoacetophenone] displayed a melting point of 110 °C. On to `CCCCCCCCNCCCCCCCC` [N-Octyloctan-1-amine], for which the melting point is 14 °C. In the case of `O=[N+]([O-])c1ccc(/C=C/c2ccc(O)cc2)cc1` [4-hydroxy-4'-nitrostilbene] it was 207 °C. The molecule `CC(=O)c1sc(-c2ccccc2)cc1N` [2-acetyl-3-amino-5-phenylthiophene] had a melting point of 121 °C.

The molecule `CC(C(=O)O)c1ccc(-c2ccccc2)c(F)c1` (stereo not given) [flurbiprofen] yielded a melting point of 110 °C. `NNC(=O)c1ccncc1` [isonicotinic acid hydrazide]: the melting point is 172 °C. Under `O=[N+]([O-])c1ccc(Cl)c([N+](=O)[O-])c1` [1-chloro-2,4-dinitrobenzene] stands 53 °C. In turn, `O=C(O)CCN1C(=O)c2ccccc2C1=O` [3-phthalimidopropionic acid] showed a melting point of 152 °C. With `CCCCCCCCCC` [decane], the melting point was -30 °C and -29.8 °C.

As for `CCCCCC(=O)OC` [methyl hexanoate], the melting point was -71 °C. In turn, `Oc1c(F)c(F)c(O)c(F)c1F` [2,3,5,6-tetrafluorohydroquinone] yielded a melting point of 169 °C. Under `O=C(Cl)c1ccc(Cl)cc1` [4-Chlorobenzoyl chloride] stands 13 °C; under `C[Si](C)(C)c1c2c(cc3c1-c1ccccc1OC3)CCCC2=O`, 159 °C; under `C=C(Br)CC1(C(C)C)C(=O)NC(=O)NC1=O` [propallylonal], 177 °C. On to `Cc1cc(C)c(NC(=O)CN(CC(=O)O)CC(=O)O)c(C)c1Br`, for which the melting point turned out to be 194 °C. Turning to `CC(=O)OC1CCC2(C)C3CCC4(C)C(=O)CCC4C3C(=O)CC2(C)C1` (stereo not given) [5-methyl-7,17-dioxoandrostan-3-yl acetate], the melting point amounted to 155 °C. The molecule `CC(C)(C)c1ccc(C(C)(C)C)cc1` [1,4-di-tert-butylbenzene] displayed a melting point of 77 °C. For `OC[C@H]1O[C@@H](O)[C@H](O)[C@H](O)[C@@H]1O` [beta-D-allose], the melting point was found to be 145 °C. In the case of `O=C(Cl)C(=O)Cl` [Ethanedioyl dichloride] it was -9 °C; in that of `CS(C)=O` [dimethyl sulfoxide], 18 °C. Turning to `CC(C)C(C(=O)O)C(=O)O` [isopropylmalonic acid], the melting point was found to be 89 °C.

For the molecule `FC(F)(F)c1cc(-n2cccc2)cc(C(F)(F)F)c1` [1-[3,5-bis(trifluoromethyl)phenyl]pyrrole], the melting point came out at 42 °C.

`CC(=O)OCC(COC(C)=O)OC(C)=O` [triacetin] had a melting point of 3 °C. Molecule `O=C1Nc2ccc(Cl)cc2C(c2ccccc2Cl)=NC1O` (stereo not given) [Lorazepam] showed a melting point of 167 °C. Under `COc1cccc(C#N)c1OC` [2,3-dimethoxybenzonitrile] stands 46 °C; under `CCOC(=O)Cn1cnc2ncnc(Cl)c21` [Ethyl (6-chloro-7H-purin-7-yl)acetate], 108 °C. `O=C(O)CO` [Glycol acid] gave a melting point of 80 °C. For the molecule `O=[N+]([O-])c1ccccc1` [nitrobenzene], the melting point stood at 6 °C. Molecule `CCc1cccc(C)c1` [3-ethyltoluene] showed a melting point of -96 °C. In the case of `Clc1nc[nH]c1Cl` [4,5-dichloroimidazole] it was 181 °C; in that of `COc1cccc(OC)c1B(O)O` [2,6-dimethoxybenzeneboronic acid], 107 °C; in that of `COC(=O)c1ccccc1C(=O)OC` [Dimethyl phthalate], 2 °C.

Molecule `O=C(OCCc1cc([N+](=O)[O-])c(CCOC(=O)c2ccccc2)cc1[N+](=O)[O-])c1ccccc1` [(2,5-dinitrobenzene-1,4-diyl)diethane-2,1-diyl dibenzoate] came in with a melting point of 158 °C. Under `CCCCCCCCCCCCCCCCCO` [1-heptadecanol] stands 58 °C. Under `Clc1ccc(Cl)cc1` [1,4-dichlorobenzene] stands 53 °C and 55 °C; under `CCOC(=O)c1ccc(N)cc1` [ethyl-4-aminobenzoate (benzocaine)], 89 °C.

As for `O=C(Nc1ccccc1/C=C/c1ccccc1)c1ccccc1` [N-{2-[(E)-2-phenylethenyl]phenyl}benzamide], the melting point amounted to 98 °C. Turning to `Oc1cc(Cl)ccc1Oc1ccc(Cl)cc1Cl` [5-Chloro-2-(2,4-dichlorophenoxy)phenol], the melting point turned out to be 57 °C. Molecule `NCC(=O)NCC(=O)O` [Glycylglycine] returned a melting point of 258 °C. Under `COc1ccccc1Br` [2-bromoanisole] stands 3 °C.

The molecule `CCCCc1ccc(C(N)=O)cc1` [4-n-butylbenzamide] returned a melting point of 128 °C. As to `O=[N+]([O-])c1ccccc1O` [2-Nitrophenol], the melting point worked out at 44 °C. In turn, `C=CCn1c(=O)n(CC=C)c(=O)n(CC=C)c1=O` [1,3,5-Triallyl-1,3,5-triazinane-2,4,6-trione] came in with a melting point of 24 °C. Under `COc1ccc(Cl)c([N+](=O)[O-])c1` [4-chloro-3-nitroanisole] stands 44 °C; under `CCCCc1ccc(/N=N/c2ccc(OC(=O)CC)cc2)cc1` [4-[(E)-(4-butylphenyl)diazenyl]phenyl propanoate], 86 °C; under `COc1ccc(OC)c(S(=O)(=O)Cl)c1` [2,5-dimethoxybenzenesulfonyl chloride], 114 °C. In the case of `Clc1cc(Cl)c(-c2ccccc2)cc1Cl` [2,4,5-Trichlorobiphenyl] it was 78 °C; in that of `CC(=O)O` [acetic acid], 17 °C. `CC(=O)OCCCCOC(C)=O` [1,4-diacetoxybutane] returned a melting point of 13 °C. Under `O=[N+]([O-])OCC(CO[N+](=O)[O-])O[N+](=O)[O-]` [Nitroglycerin] stands 13.5 °C; under `C1=CC=CC=CC=C1` [1,3,5,7-cyclooctatetraene], -27 °C. Under `O=C(O)c1cc(Cl)ccc1Cl` [2,5-dichlorobenzoic_acid] stands 156 °C; under `O=C4\C=C2/[C@]([C@H]1CC[C@@]3([C@@H](C(=O)CO)CC[C@H]3[C@@H]1CC2)C)(C)CC4` [deoxycorticosterone], 142 °C.

With `CCCCCCCCCC` [Decane], the melting point is -30 °C and -29.7 °C. In the case of `O=C(O)CCCc1ccc(F)cc1` [4-(4-fluorophenyl)butyric acid] it was 45 °C; in that of `O=C1c2ccccc2C(=O)c2c1ccc(O)c2O` [1,2-Dihydroxy-9,10-anthraquinone], 281 °C; in that of `Fc1ccc(/C=N/n2c(S)nnc2C(F)(F)F)cc1`, 212 °C. In the case of `Nc1cccc(C(=O)c2cccc(N)c2)c1` [3,3'-diaminobenzophenone] it was 150 °C. Turning to `CC12CCC(C=C/C1=N\O)C2(C)C` (stereo not given) [(2E)-N-hydroxy-1,8,8-trimethylbicyclo[3.2.1]oct-3-en-2-imine], the melting point turned out to be 146 °C.

As for `CC1=NCCN1` [2-methyl-2-imidazoline], the melting point came out at 100 °C.

Turning to `COc1ccc2[nH]c(S(=O)Cc3ncc(C)c(OC)c3C)nc2c1` (stereo not given) [omeprazole], the melting point came to 156 °C. Under `Cc1cccc(N)c1` [m-toluidine] stands -30 °C.

On to `C/C=C/CCC` [trans-2-hexene], for which the melting point is -99 °C. As for `C[C@]12CC[C@H]3[C@@H](CCC4=CC(=O)CC[C@@]43C)[C@@H]1CC[C@@H]2O` [Testosterone], the melting point was 154 °C. `Clc1cc(N2CCCC2)ncn1` [4-chloro-6-(1-pyrrolidinyl)pyrimidine] showed a melting point of 97 °C. On to `CC(C)Nc1ccccc1` [N-isopropylaniline], for which the melting point was -32 °C. For `O=S(=O)([O-])CCN1CC[NH+](CCO)CC1` [2-[4-(2-Hydroxyethyl)piperazin-4-ium-1-yl]ethanesulfonate], the melting point amounted to 236 °C. `O=C(O)c1cc([N+](=O)[O-])cc([N+](=O)[O-])c1` [3,5-dinitrobenzoic acid] registered a melting point of 206 °C.

For `C(#Cc1ccc2ccccc2c1)c1ccccc1` [2-(phenylethynyl)naphthalene], the melting point is 117 °C. The molecule `CCC1(C(C)C)C(=O)NC(=O)NC1=O` [probarbital] had a melting point of 203 °C. Take `O=Cc1cc([N+](=O)[O-])ccc1Cl` [2-chloro-5-nitrobenzaldehyde]: the melting point stood at 71 °C.

Molecule `O=C1CSc2ccccc2N1` [(2h)1,4-benzothiazin-3(4h)-one] had a melting point of 177 °C.
